Legend:
[1] = Feed stability: optimum ratio of compound of formula I to β-cyclodextrin; assay type: physicochemical; settings: feed mixtures, ratio to β-cyclodextrin varied
Description: (§1) As model feed a ready feed for piglets of the following composition is used:
Various forms of the preparation are mixed with the ready feed in a concentration of 200 ppm of compound of formula I and stored for several weeks at 30°. […]
For determination of the optimum ratio of compound of formula I to cyclodextrin, investigations are carried out using various concentrations of cyclodextrin. Results as regards stability in feed mixtures are summarized in Table 2 [in the first column "ratio" means the ratio of compound of formula I (hydrochloride) to β-cyclodextrin]: […]

[2] = Oral absorption in rats, plasma concentration by microbiological analysis; assay type: in vivo; settings: rat, 25 mg/kg body weight, pure compound in drinking water
Description: (§2) Absorption following administration to rats and pigs of 25 mg/kg body weight of a preparation according to Example 3 is tested and compared with pure compound of formula I (hydrochloride) in the drinking water. Blood samples are taken after a period of 24 hours and the concentration of active substance in plasma determined by microbiological analysis. The results in Table 3 show the absorption of the compound of formula I when administered in the form of a complex of the invention: […]

[3] = Feed stability: storage in ready piglet feed, content by HPLC; assay type: physicochemical; settings: feed mixture, 200 ppm, 30°
Description: as §1
Various forms of the preparation are mixed with the ready feed in a concentration of 200 ppm of compound of formula I and stored for several weeks at 30°. Both the starting value of the fresh mixtures and the content values after storage for 2, 4 and 8 weeks are analysed by high pressure liquid chromatography (HPLC).

[4] = Oral absorption in pigs, plasma concentration by microbiological analysis; assay type: in vivo; settings: pig, 25 mg/kg body weight, pure compound in drinking water
Description: as §2

[5] = test system: gram-positive and gram-negative bacteria; settings: many gram-positive and gram-negative bacteria; free base, acid addition or quaternary salt form; cited from earlier work
[6] = Phase-solubility diagram (inclusion compound type, complex binding constant) with β-cyclodextrin; assay type: physicochemical; settings: compound of formula I in the form of the base; with cyclodextrin (printed without Greek letter)
Text: (§3) Based on the phase-solubility diagram (see "Methods of investigating and preparing inclusion compounds and their industrial uses" in D. Duchene, "Cyclodextrins and their Industrial Uses", Editions de Sante [1987]), the following types of inclusion compounds are obtained with the compound of formula I in the form of the base and […]

[7] = Phase-solubility diagram (inclusion compound type, complex binding constant) with γ-cyclodextrin; assay type: physicochemical; settings: compound of formula I in the form of the base
Text: as §3

[8] = Stability in conventional complete feed mixtures (general statement); assay type: physicochemical
[9] = read-out: AUC (area under curve)
[10] = read-out: Cmax (maximum plasma concentration)

| Compound | Content after 1 month ([1]; after 1 month, 43800 min) | Content after 2 months ([1]; after 2 months, 87600 min) | Content after 3 months ([1]; after 3 months, 131400 min) | Content, initial value ([1]; initial value) | AUC [2, 9] | Cmax [2, 10] | Content after 2 weeks ([3]; after 2 weeks, 20160 min) | Content after 4 weeks ([3]; after 4 weeks, 40320 min) | Content after 8 weeks ([3]; after 8 weeks, 80640 min) | Content, initial value ([3]; initial value) | AUC [4, 9] | Cmax [4, 10] | antibacterial effectiveness [5] | type of inclusion compound (phase-solubility diagram) [6] | type of inclusion compound (phase-solubility diagram) [7] | breakdown by constituents of conventional complete feed mixtures [8] |
| --- | --- | --- | --- | --- | --- | --- | --- | --- | --- | --- | --- | --- | --- | --- | --- | --- |
| C=C[C@]1(C)C[C@@H](OC(=O)CSC(C)(C)CNC(=O)[C@H](N)C(C)C)[C@]2(C)[C@H](C)CC[C@]3(CCC(=O)[C@H]32)[C@@H](C)[C@@H]1O [14-O-[1-((D)-2-amino-3-methylbutyrylamino)-2-methylpropan-2-ylthioacetyl]mutilin] | 9% | 9% | 7% | 100% | 139000 ng·h/mL | 8600 ng/mL | 15% | 8% | 6% | 100% | 21400 ng·h/mL | 1200 ng/mL | – | – | – | – |
| C=C[C@]1(C)C[C@@H](OC(=O)CSC(C)(C)CNC(=O)[C@H](N)C(C)C)[C@]2(C)[C@H](C)CC[C@]3(CCC(=O)[C@H]32)[C@@H](C)[C@@H]1O [compound of formula I, 14-O-[1-((D)-2-amino-3-methylbutyrylamino)-2-methylpropan-2-ylthioacetyl]mutilin] | – | – | – | – | – | – | – | – | – | – | – | – | highly effective | type AL | type BS | broken down very rapidly |
